By IC50 is commonly meant the midpoint of a concentration-inhibition curve. Broadly, the inhibition is the drop in the measured response relative to a control, in per cent. The low end stands for a weak effect, the high end for a strong effect. One may read the half-life as the time needed for the level to fall by half in the phase considered. Read a low half-life as fast loss.

A short description of series [1]: Inhibition of ROCK in rat A7r5 cells assessed as inhibition of myosin light chain bisphosphorylation by Western blot analysis. The format is cell-based. (In general: A western blot detects proteins with antibodies after separation by electrophoresis.)
The target in the next series is CYP2D6 (Homo sapiens, UniProt P10635). Nature of the series: Inhibition of CYP2D6 (unknown origin) at 10 uM relative to control. The format is ADME.
In the next series the target is T1, CYP1A2 (Homo sapiens, UniProt P05177).
T1 sequence (P05177 whole entry): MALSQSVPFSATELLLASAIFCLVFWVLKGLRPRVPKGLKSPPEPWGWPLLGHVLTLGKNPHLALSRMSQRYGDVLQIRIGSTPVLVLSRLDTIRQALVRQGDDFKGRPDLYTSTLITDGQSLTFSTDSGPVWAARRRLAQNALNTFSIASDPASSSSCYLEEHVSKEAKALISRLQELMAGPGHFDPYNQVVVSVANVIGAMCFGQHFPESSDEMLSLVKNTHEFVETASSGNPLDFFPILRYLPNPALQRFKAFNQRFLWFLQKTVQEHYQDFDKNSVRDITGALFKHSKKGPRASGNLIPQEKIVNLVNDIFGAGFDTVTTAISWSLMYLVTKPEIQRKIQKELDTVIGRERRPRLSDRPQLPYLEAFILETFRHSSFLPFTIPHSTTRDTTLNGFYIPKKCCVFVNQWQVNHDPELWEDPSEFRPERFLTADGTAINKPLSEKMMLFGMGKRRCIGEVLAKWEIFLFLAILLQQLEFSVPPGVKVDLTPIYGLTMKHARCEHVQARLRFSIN
Nature of the series: Inhibition of CYP1A2 (unknown origin) at 10 uM relative to control. The format is ADME.

The nature of series [2]: Inhibition of PKA (unknown origin). Also noted: species or system Homo sapiens.
The target of series [3] is Serine/threonine-protein kinase MRCK alpha (Homo sapiens, UniProt Q5VT25). Nature of the series: Inhibition of MRCKalpha (unknown origin).
The target in the next series is CYP3A4 (Homo sapiens, UniProt P08684). Nature of the series: Inhibition of CYP3A4 (unknown origin) at 10 uM relative to control. The format is ADME.
Series [4] concerns the target Mitogen-activated protein kinase 8 (Homo sapiens, UniProt P45983). Nature of the series: Inhibition of JNK1 (unknown origin).
Series [5] concerns the target Mitogen-activated protein kinase 10 (Homo sapiens, UniProt P53779). Nature of the series: Inhibition of JNK3 (unknown origin).
For series [6], the target named is Mitogen-activated protein kinase 14 (Homo sapiens, UniProt Q16539). Nature of the series: Inhibition of p38alpha (unknown origin).
Series [7] is described as follows: Half life in human liver microsomes. The format is ADME, Microsome. A general note: Liver microsomes are a subcellular fraction often used to study metabolism.
Series [8] has as its target Mitogen-activated protein kinase 9 (Homo sapiens, UniProt P45984). Nature of the series: Inhibition of JNK2 (unknown origin).
The next series has as its target CYP2C9 (Homo sapiens, UniProt P11712). Nature of the series: Inhibition of CYP2C9 (unknown origin) at 10 uM relative to control. The format is ADME.
Series [9] has as its target Rho-associated protein kinase 1 (Homo sapiens, UniProt Q13464). Nature of the series: Inhibition of ROCK1 (unknown origin).
Series [10] addresses Rho-associated protein kinase 2 (Homo sapiens, UniProt O75116). Nature of the series: Inhibition of human recombinant 6-His-tagged ROCK2 expressed in baculovirus-infected Sf9 cells using LCB-AKRRRLSSLRA-NH2 as substrate after 25 mins by TR-FRET assay. Background: TR-FRET usually uses a lanthanide donor and a delayed reading to cut background.

Sequence of CYP2D6 (P10635 whole entry): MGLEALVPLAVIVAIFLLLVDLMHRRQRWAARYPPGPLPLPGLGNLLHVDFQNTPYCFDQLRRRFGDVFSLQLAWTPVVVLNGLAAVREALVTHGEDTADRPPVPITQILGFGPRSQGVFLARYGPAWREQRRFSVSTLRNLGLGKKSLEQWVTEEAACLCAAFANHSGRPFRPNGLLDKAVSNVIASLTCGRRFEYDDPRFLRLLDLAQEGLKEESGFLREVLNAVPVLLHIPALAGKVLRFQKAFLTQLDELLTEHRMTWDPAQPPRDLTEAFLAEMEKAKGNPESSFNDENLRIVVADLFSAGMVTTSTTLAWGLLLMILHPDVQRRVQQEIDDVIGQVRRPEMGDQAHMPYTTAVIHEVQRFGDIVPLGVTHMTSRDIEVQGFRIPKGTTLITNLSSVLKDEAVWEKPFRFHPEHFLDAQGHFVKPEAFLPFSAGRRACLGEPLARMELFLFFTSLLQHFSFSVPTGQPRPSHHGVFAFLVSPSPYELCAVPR
Sequence of CYP3A4 (P08684 whole entry): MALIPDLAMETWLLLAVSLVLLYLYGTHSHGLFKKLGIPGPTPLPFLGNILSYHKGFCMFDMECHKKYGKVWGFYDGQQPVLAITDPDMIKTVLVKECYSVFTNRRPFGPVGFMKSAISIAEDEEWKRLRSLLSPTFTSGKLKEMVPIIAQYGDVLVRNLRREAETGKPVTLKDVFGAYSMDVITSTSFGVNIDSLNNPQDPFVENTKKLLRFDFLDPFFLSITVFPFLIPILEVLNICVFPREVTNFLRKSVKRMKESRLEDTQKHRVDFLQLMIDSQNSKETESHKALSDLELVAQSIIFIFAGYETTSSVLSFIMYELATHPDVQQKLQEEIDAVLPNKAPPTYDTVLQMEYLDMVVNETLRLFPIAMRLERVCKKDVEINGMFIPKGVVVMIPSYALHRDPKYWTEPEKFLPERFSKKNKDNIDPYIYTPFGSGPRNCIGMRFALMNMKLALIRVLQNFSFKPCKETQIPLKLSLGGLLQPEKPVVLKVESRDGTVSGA
Sequence of CYP2C9 (P11712 whole entry): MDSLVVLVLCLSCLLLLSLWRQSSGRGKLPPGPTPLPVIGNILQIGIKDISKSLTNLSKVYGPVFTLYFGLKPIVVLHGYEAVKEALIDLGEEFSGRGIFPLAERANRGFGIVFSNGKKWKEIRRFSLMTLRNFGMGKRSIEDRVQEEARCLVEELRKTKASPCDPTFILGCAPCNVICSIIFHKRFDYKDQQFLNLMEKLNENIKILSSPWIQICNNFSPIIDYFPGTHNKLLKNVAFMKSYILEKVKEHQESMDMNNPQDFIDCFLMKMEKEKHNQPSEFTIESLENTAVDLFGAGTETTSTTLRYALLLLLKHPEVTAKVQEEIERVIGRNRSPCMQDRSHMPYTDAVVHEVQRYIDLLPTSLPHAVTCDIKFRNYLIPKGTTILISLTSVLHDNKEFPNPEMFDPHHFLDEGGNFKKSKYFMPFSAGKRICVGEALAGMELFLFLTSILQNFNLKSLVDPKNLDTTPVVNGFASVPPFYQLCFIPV
Sequence of Rho-associated protein kinase 2 (O75116 whole entry): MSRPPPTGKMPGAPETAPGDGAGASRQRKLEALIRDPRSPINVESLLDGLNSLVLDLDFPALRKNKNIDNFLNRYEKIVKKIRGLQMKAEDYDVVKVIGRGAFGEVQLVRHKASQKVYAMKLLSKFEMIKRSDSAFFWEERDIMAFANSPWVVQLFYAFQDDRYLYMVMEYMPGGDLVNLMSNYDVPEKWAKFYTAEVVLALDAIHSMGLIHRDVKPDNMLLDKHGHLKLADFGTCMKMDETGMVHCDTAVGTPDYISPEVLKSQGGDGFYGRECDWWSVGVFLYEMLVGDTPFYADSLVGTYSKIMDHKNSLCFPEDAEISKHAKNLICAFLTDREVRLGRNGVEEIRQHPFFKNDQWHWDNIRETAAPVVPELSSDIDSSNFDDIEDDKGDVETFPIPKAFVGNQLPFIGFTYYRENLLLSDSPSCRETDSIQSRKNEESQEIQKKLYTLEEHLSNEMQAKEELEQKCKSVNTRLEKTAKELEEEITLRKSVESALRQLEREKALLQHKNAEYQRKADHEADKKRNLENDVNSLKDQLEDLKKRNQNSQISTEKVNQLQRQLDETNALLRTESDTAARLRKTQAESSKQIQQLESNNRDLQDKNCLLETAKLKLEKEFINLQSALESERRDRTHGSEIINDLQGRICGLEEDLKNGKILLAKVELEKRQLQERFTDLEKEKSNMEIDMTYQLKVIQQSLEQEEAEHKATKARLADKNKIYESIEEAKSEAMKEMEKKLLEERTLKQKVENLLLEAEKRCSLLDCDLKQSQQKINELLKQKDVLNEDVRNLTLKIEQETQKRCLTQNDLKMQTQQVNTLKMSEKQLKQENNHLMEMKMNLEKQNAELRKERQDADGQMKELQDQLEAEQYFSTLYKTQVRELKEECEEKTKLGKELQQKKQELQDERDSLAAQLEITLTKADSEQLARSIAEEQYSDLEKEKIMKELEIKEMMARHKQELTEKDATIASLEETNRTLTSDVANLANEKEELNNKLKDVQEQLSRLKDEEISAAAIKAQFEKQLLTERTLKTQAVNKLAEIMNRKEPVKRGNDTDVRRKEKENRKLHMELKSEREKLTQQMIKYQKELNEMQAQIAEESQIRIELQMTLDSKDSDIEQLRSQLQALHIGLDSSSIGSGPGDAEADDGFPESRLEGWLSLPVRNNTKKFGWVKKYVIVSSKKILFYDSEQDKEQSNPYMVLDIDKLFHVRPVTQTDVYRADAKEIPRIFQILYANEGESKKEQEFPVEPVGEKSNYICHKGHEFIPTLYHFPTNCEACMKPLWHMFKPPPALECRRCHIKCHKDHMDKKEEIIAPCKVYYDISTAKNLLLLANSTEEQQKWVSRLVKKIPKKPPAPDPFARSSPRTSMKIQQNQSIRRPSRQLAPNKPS
Sequence of Mitogen-activated protein kinase 8 (P45983 whole entry): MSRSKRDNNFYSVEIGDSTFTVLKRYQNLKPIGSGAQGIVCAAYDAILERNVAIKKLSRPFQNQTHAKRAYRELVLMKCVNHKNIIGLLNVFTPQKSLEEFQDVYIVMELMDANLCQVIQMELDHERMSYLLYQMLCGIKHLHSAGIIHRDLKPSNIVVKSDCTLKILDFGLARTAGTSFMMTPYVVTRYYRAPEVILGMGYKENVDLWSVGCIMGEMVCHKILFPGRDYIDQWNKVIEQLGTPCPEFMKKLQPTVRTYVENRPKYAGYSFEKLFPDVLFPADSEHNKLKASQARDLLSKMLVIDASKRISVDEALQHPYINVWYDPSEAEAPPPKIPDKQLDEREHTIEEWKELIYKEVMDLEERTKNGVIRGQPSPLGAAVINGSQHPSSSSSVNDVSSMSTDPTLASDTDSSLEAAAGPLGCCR
Sequence of Mitogen-activated protein kinase 10 (P53779 whole entry): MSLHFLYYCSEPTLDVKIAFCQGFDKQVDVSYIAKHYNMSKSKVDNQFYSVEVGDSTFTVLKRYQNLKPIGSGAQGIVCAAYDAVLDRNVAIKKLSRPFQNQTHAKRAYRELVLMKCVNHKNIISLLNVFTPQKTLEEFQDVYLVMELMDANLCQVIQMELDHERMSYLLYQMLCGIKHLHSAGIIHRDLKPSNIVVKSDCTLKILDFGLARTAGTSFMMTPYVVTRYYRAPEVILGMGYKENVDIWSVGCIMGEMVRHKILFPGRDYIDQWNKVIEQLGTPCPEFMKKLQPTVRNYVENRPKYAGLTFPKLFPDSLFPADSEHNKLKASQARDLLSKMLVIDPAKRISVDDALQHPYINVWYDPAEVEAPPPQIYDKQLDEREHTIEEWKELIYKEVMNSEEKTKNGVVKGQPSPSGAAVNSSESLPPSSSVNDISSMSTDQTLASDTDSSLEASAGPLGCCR
Sequence of Mitogen-activated protein kinase 14 (Q16539 whole entry): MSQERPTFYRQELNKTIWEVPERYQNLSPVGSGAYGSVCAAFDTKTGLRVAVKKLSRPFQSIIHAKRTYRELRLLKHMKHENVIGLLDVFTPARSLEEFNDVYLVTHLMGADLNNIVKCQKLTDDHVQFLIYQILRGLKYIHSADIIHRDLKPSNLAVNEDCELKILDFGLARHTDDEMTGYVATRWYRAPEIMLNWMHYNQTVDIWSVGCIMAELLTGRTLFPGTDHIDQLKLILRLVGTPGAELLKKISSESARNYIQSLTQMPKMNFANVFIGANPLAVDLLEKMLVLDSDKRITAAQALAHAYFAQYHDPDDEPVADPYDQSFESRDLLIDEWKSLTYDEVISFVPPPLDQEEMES
Sequence of Mitogen-activated protein kinase 9 (P45984 whole entry): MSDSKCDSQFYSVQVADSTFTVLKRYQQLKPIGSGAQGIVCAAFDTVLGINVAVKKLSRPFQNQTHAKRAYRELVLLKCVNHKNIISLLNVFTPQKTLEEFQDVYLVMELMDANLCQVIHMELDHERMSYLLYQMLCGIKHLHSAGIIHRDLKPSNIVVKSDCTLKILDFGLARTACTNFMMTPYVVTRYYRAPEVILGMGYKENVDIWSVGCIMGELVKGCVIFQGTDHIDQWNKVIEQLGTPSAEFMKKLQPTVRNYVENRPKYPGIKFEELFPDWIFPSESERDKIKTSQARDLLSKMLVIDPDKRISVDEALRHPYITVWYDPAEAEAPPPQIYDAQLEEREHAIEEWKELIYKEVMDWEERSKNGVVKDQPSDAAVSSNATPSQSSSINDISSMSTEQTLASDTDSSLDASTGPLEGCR

Take `O=c1[nH]c([C@@H]2CNC[C@H]2c2ccccc2)nc2ccc(-c3cn[nH]c3)cc12`: the IC50 in series [1] was 312 nM; in series [2] it was 4 nM; in [3] it was over 1000 nM; in series [4], over 1000 nM; in series [5], over 1000 nM; in [6] it was over 1000 nM. Further, the IC50 is over 1000 nM in series [8], 2 nM in series [9] and 1 nM in series [10]. In addition, the inhibition at 10 µM against CYP2D6 was found to be 72%; against CYP1A2, 19%; against CYP3A4 it was 19%; against CYP2C9, 5%. The compound further displayed a half-life in series [7] of 35 min.

The record behind these values is ChEMBL document CHEMBL2331421, “Amino acid derived quinazolines as Rock/PKA inhibitors” (Bioorg Med Chem Lett, 2013).
